Assay results taken from publication PMC2664537 (Journal of medicinal chemistry, 2008).
pEC50, pIC50: −log10 of the molar value.

Assays:
[1] = solubility observed during assay preparation; assay type: physicochemical; details: for solubility in buffer with 5% DMSO: after being dissolved in DMSO initially
[2] = target: rhodopsin in urea-washed rod outer-segment membranes (MII state, R*) (Bos taurus, UniProt P02699); experiment: extra MII stabilization assay; assay type: biochemical, bovine
[3] = target: R*-Gt interaction (photoactivated rhodopsin / transducin) (Bos taurus, UniProt P02699); experiment: R*-Gt binding and release assay; design: species or system bovine
R*-Gt interaction (photoactivated rhodopsin / transducin), sequence (P02699 whole entry): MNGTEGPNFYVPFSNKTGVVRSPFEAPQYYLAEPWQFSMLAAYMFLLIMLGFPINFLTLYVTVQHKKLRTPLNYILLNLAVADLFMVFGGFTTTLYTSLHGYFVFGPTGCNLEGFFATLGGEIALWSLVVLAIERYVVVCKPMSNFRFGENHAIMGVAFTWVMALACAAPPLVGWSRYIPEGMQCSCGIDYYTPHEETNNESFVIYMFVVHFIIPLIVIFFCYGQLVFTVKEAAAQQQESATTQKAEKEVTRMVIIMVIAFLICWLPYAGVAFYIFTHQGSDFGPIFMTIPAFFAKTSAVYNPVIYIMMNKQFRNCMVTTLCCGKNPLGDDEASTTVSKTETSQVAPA

rhodopsin in urea-washed rod outer-segment membranes (MII state, R*), sequence (P02699 whole entry): as above

C[C@H]1[C@H](C)CC[C@]2(C(=O)O)CC[C@]3(C)C(=CC[C@@H]4[C@@]5(C)C[C@@H](O)[C@H](O)[C@@](C)(CO)[C@@H]5[C@H](O)C[C@]43C)[C@H]12 [Compound 2, madecassic acid]
solubility in buffer with 5% DMSO [1]: soluble

C[C@]12CC[C@H]3[C@@H](CCC4=CC(=O)CC[C@@]43C)[C@@H]1CC[C@@H]2C(=O)COS(=O)(=O)c1ccc(Br)cc1 [Compound 3]
solubility in buffer with 3% DMSO/3% butanol ([1]; dissolved in DMSO/butanol solution, then buffer added): remained soluble

CC1(C)CC[C@]2(C(=O)O)CC[C@]3(C)C(=CC[C@@H]4[C@@]5(C)C[C@H](O)[C@H](O)[C@@](C)(C(=O)O)[C@@H]5CC[C@]43C)[C@@H]2C1 [Compound 16, medicagenic acid]
pEC50 [2]: 3.46 | pIC50 [3]: 2.70 | solubility in buffer with 5% DMSO [1]: soluble

CC1(C)[C@@H](O)CC[C@]2(C)[C@H]3C(=O)C=C4[C@@H]5C[C@@](C)(C(=O)O)CC[C@]5(C)CC[C@@]4(C)[C@]3(C)CC[C@@H]12 [Compound 12]
activity in extra MII assay using pure compound ([2]; pure compound): neither showed significant activity
